The test has as its system mouse MC3T3 E1 osteoblast cultures. Description: Cell adhesion test on RGD-peptide-coated titanium surfaces. It is filed as cell-based. The settings on record: 50,000 cells/cm^2 seeded, one hour in serum-free medium at 37° C.; FIG. 2; compared with JAU311003, all concentrations measured. The procedure:
Ti or TiAl6V4 moldings having a diameter of 10 mm and a height of 1-2 mm are cleaned.
The moldings are transferred into 48-well plates (Costar, “non-tissue culture treated” Art. No. 3574). For bonding of the bioactive, cell adhesion-promoting molecules B (where B can be a cyclopeptide, peptide mimetic or linear peptide) to the prepared moldings, stock solutions containing B molecules (“B solutions”) are prepared in a final concentration of 1 mM in an aqueous buffer. Concentration series with the “B solution” final concentrations of 1 nM, 10 nM, 100 nM, 1 μM, 10 μM and 100 μM in each case are subsequently prepared by dilution with buffer. The moldings are covered with 250 μl of the respective B solutions in each case and subsequently incubated at room temperature for 18-24 hours. For removal of unbound B molecules, the samples are washed three times with buffer and stored in buffer overnight. […]
The adhesion of mouse MC3T3 E1 osteoblast cultures to RGD-peptide-coated titanium surfaces in vitro was investigated. 50,000 cells/cm^2 were seeded, and the proportion of adhered cells was determined after incubation for one hour in serum-free medium at 37° C./95% atmospheric humidity. • Cell adhesion rate [%]=adhered cells/seeded cells×100 • Peptide: cell adhesion rate [%] • The results can be found in the figures.

As to “cyclo(Arg-Gly-Asp-D-Phe-Lys(^εNH—[CO—(CH2)5—NH]3—(CO—C6H3(CH2PO3H2)2)) [CD 135]”, the Cell adhesion rate entry is on record as “higher cell adhesion rate for all concentrations measured”.

The record behind these values is patent US20050261169A1, “Peptide and peptide mimetic derivatives having integrin inhibitor properties III” (priority 2003, published 2005).
